According to article PMC10997755, “Discovery of a small-molecule inhibitor that traps Polθ on DNA and synergizes with PARP inhibitors” (Nature Communications, 2024):
Where “and” joins values, the source holds several entries; their conditions need not be identical. Equal entries are not always repeated.

How the values were obtained:
Polθ-pol [1] = target: T1, Polθ-pol (Homo sapiens, UniProt O75417); assay: Relative rate of Polθ-pol dAMP addition; assay type: biochemical
T1 construct: purified recombinant human Polθ-pol (comprising amino acid residues 1792–2590); made in house
T1 sequence (O75417 1792-2590): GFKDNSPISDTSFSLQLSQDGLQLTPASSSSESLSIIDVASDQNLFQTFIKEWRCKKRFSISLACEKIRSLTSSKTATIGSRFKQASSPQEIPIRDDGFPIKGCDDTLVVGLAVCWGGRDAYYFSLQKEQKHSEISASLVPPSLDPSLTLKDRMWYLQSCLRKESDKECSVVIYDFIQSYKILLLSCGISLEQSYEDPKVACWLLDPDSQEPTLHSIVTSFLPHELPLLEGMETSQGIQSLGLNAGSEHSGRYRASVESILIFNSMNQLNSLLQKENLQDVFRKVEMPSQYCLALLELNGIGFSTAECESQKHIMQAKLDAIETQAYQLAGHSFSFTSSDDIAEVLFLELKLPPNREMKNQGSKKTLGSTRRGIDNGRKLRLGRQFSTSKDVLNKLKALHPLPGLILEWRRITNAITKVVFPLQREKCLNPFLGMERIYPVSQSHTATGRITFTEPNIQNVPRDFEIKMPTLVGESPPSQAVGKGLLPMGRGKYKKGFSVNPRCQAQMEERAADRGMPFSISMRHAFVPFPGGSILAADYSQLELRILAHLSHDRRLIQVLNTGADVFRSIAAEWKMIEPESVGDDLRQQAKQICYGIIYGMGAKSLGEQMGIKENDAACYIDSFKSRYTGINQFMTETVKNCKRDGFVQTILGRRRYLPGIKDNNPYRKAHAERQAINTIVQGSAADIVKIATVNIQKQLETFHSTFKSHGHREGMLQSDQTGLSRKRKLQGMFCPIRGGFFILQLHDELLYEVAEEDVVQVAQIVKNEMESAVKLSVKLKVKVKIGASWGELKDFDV
Experimental: Relative rate of Polθ-pol dAMP addition. The relative rates of dAMP incorporation by Polq-pol in the presence of DMSO or MC160385 with various concentrations of dATP were measured using the following primer extension assay in vitro. 2 nM or Polθ-pol was incubated with 5’ ^32P-γ-ATP labeled 100 nM primer-template (RP469D/RP486) in 1X buffer (25 mM TrisHCl pH 7.8, 0.01% NP40, 10% glycerol, 1 mM DTT, 10 mM MgCl2, 0.1 mg/ml BSA) at room temp. 2.5% DMSO, 7.5 nM or 12 nM of MC160385 was added. Reactions were than initiated by the addition of 20, 50, 100, 200, or 300 μM dATP at room temp. Aliquots of the reactions were removed and terminated by the addition of 50 mM EDTA at 3, 3.5, 4 and 5 min after the reaction was initiated. Radio-labeled DNA was then resolved via denaturing 20% PAGE and visualized by Typhoon PhosphorImager (GE Amersham). Rates of dAMP incorporation were calculated from % extension of the prime-template which was determined using ImageJ software. Relative rate of ddCMP addition on DNA/DNA and DNA/RNA. 25 nM nucleic acid DNA/DNA or DNA/RNA primer-template (RP559/RP702 or RP559/RP702R) was mixed with 1X reaction buffer (20 mM TrisHCl pH 7.5, 0.01% NP-40, 0.5 mM DTT, 10% glycerol, 0.1 mg/ml BSA, 10 mM MgCl2) in the presence of 250 μM ddCTP at room temp. Next, 2 μM RTx-161 or 2.5% DMSO was added. Reactions were initiated by the addition of 10 nM Polθ-pol. Reaction aliquots were removed and terminated by the addition of 50 mM EDTA at the indicated time points. Radio-labeled DNA was then resolved via denaturing 20% PAGE and visualized by Typhoon PhosphorImager. Percent primer extension by single ddCMP addition at each time point was calculated from % extension of the prime-template which was determined using ImageJ software.

DLD1 BRCA2 -/- cells = assay: γ-H2AX immunofluorescence; assay type: cell-based
Experimental: (§1) Cells were plated on six well plates with glass-coverslips and treated with RTX-161 day after plating. Four days after treatment, cells were fixed with 4% (v/v) paraformaldehyde for 20 min at 4 °C, washed with PBS, permeabilized with 0.5% (v/v) Triton X for 10 min and blocked with PBS containing 3% BSA. Cells were incubated with primary antibody overnight at 4 °C followed by 3x washes with PBS and then 1 h incubation with secondary antibody. The incubations were performed in the dark in a humidified chamber. After 3x washing in PBS for 3 min, slides were mounted in 20 ul Prolong antifade with DAPI (LifeTechnologies) to counterstain the nuclei. Cells were visualized and imaged using Nikon A1R Confocal microscope at a 63X objective magnification, and images were analyzed using ImageJ software. For quantification, >50 cells were counted for all conditions from three independent experiments. The primary antibody used for IF was rabbit anti-gamma H2AX [p Ser139] antibody (Bethyl Lab #A700-053) 1:500 dilution in 1% BSA in PBS. The secondary antibody was Goat anti-Rabbit IgG (H + L) Secondary Antibody, DyLight 488 (Thermo #35552) 1:2000 dilution in 1% BSA in PBS.

DLD1 Parental cells = assay: γ-H2AX immunofluorescence; assay type: cell-based; settings: DLD1-BRCA2-WT, 5 microM
Experimental: as §1

Polβ = target: T2, Polβ (Homo sapiens, UniProt P06746); assay: Primer extension by recombinant Pols (selectivity); assay type: biochemical
T2 construct: gift: Dr. Wilson (NIEHS)

Polθ-pol [2] = target: T1, Polθ-pol; assay: Primer extension by recombinant Pols (selectivity); assay type: biochemical

CN(C(=O)Oc1ccc(C(F)(F)F)cc1C(F)(F)F)c1ccc(F)cc1 [MC160385]
effect on Km for dATP (Polθ-pol [1]): slightly reducing
effect on Vmax of dAMP incorporation (Polθ-pol [1]): significantly reduces
relative velocity of dAMP incorporation (avg) (Polθ-pol [1]; 7.5 nM MC160385, dATP 20 uM): 2.69 and 2.7
relative velocity of dAMP incorporation (avg) (Polθ-pol [1]; 7.5 nM MC160385, dATP 50 uM): 5.36 and 5.4
relative velocity of dAMP incorporation (avg) (Polθ-pol [1]; 7.5 nM MC160385, dATP 100 uM): 6.32 and 6.3
relative velocity of dAMP incorporation (avg) (Polθ-pol [1]; 7.5 nM MC160385, dATP 200 uM): 6.56 and 6.6
relative velocity of dAMP incorporation (avg) (Polθ-pol [1]; 7.5 nM MC160385, dATP 300 uM): 6.245 and 6.2
relative velocity of dAMP incorporation (avg) (Polθ-pol [1]; 12 nM, dATP 20 uM): 2.3
relative velocity of dAMP incorporation (avg) (Polθ-pol [1]; 12 nM, dATP 50 uM): 4.065
relative velocity of dAMP incorporation (avg) (Polθ-pol [1]; 12 nM, dATP 50 uM, listed as MC160386): 4.1
relative velocity of dAMP incorporation (avg) (Polθ-pol [1]; 12 nM, dATP 100 uM): 4.94
relative velocity of dAMP incorporation (avg) (Polθ-pol [1]; 12 nM, dATP 100 uM, listed as MC160386): 4.9
relative velocity of dAMP incorporation (avg) (Polθ-pol [1]; 12 nM, dATP 200 uM): 4.6
relative velocity of dAMP incorporation (avg) (Polθ-pol [1]; 12 nM, dATP 300 uM): 4.95

CN(C(=O)Oc1c(N2CCN(CCO)C2=O)cc(C(F)(F)F)cc1C(F)(F)F)c1ccc(F)cc1 [RTx-161]
Percent of positive nuclei, Average (DLD1 BRCA2 -/- cells; DLD1- BRCA2-null, 5 microM, Average of Expt 1-3 (DMSO 14.884)): 48.7855%
Percent of positive nuclei (3 or more than 3 g-H2AX foci) (DLD1 BRCA2 -/- cells; DLD1- BRCA2-null, 5 microM, single Experiments 1-3): 47.2973% and 43.3071% and 55.7522%
DNA damage (γ-H2AX phosphorylation) (DLD1 BRCA2 -/- cells; immunofluorescence and Western blot, versus parental): selectively caused DNA damage
Percent of positive nuclei, Average (DLD1 Parental cells; Average of Expt 1-3 (DMSO 4.28755)): 10.2071%
Percent of positive nuclei (3 or more than 3 g-H2AX foci) (DLD1 Parental cells; single Experiments 1-3): 11.5942% and 12.5984% and 6.429%
% Full Extension (Polβ; Pol Beta): 84.31%
% Inhibition Compared to Control (Polβ; Pol Beta): -0.98%
% Relative Maximum Extension (Polβ; Pol Beta): 100.98%
inhibition of primer extension (Polβ; selectivity panel, Pol named in Supplementary Fig. 1h): no inhibition
% Full Extension (Polθ-pol [2]; Pol Theta): 14.28%
% Inhibition Compared to Control (Polθ-pol [2]; Pol Theta): 85.17%
% Relative Maximum Extension (Polθ-pol [2]; Pol Theta): 14.83%
inhibition of primer extension (Polθ-pol [2]; selectivity panel): selective inhibition
